Results: paper PMC12105704 (2025)

Tests used:
[1] = tested on: Cy5-labelled Tte PreQ1 RNA (RNA, riboswitch) CUGGGUCGCAGUAACCCCAGUUAACAAAACAAG; experiment: microscale thermophoresis; conditions: 100 mM KCl, 1 mM MgCl2; 50 mM Tris pH 7.5, 5% DMSO, RT; irradiated 365 nm 35 min before MST, covalent, apparent
[2] = tested on: Ssa-PreQ1 RNA (RNA, riboswitch) AGAGGUUCCUAGCUGAUACCCUCUAUAAAAAACUA; experiment: photocrosslinking, PAGE gel shift; conditions: PreQ1 folding buffer: 100 mM KCl, 1 mM MgCl2, covalent, 50 µM RNA, 75 µM compound, 365 nm 35 min
[3] = tested on: Bsu PreQ1 aptamer (RNA, riboswitch) AGAGGUUCUAGCUACACCCUCUAUAAAAAACUAA; experiment: photocrosslinking, PAGE gel shift and MALDI-TOF; conditions: PreQ1 folding buffer: 100 mM KCl, 1 mM MgCl2; covalent; 50 µM RNA, 75 µM CNV, 365 nm 35 min, RT
[4] = tested on: Oih PreQ1 aptamer (RNA, riboswitch) AGAGGUUCUUAGCUUCAACCCUCUAUAAAAAACUAA; experiment: photocrosslinking, PAGE gel shift and MALDI-TOF; conditions: PreQ1 folding buffer: 100 mM KCl, 1 mM MgCl2; covalent; 50 µM RNA, 75 µM CNV, 365 nm 35 min, RT
[5] = tested on: Bpu PreQ1 aptamer (RNA, riboswitch) AGAGGUUCUAGCAAAACCCUCUAUAAAAAACUAA; experiment: photocrosslinking, PAGE gel shift and MALDI-TOF; conditions: PreQ1 folding buffer: 100 mM KCl, 1 mM MgCl2; covalent; 50 µM RNA, 75 µM CNV, 365 nm 35 min, RT
[6] = tested on: Gth PreQ1 aptamer (RNA, riboswitch) AGAGGUUUCUAGCAAAACCCUCUAUAAAAAACUA; experiment: photocrosslinking, PAGE gel shift and MALDI-TOF; conditions: PreQ1 folding buffer: 100 mM KCl, 1 mM MgCl2; covalent; 50 µM RNA, 75 µM CNV, 365 nm 35 min, RT
[7] = tested on: Tte PreQ1 RNA (unlabeled) (RNA, riboswitch) CUGGGUCGCAGUAACCCCAGUUAACAAAACAAG; experiment: photocrosslinking, denaturing PAGE and fluorescence; conditions: PreQ1 folding buffer: 100 mM KCl, 1 mM MgCl2; covalent; 50 µM RNA, 75 µM CNV, 365 nm; 15% crosslinked at 35 min
[8] = tested on: Ssa-PreQ1 RNA (RNA, riboswitch) AGAGGUUCCUAGCUGAUACCCUCUAUAAAAAACUA; experiment: photocrosslinking, streptavidin pull-down, PAGE; conditions: PreQ1 folding buffer: 100 mM KCl, 1 mM MgCl2; covalent; 50 µM RNA, 75 µM bio-CNV, 35 min; also pulled down from MCF7 total RNA
[9] = tested on: Tte PreQ1 RNA (unlabeled) (RNA, riboswitch) CUGGGUCGCAGUAACCCCAGUUAACAAAACAAG; experiment: competition with CNV photocrosslinking, PAGE; conditions: PreQ1 folding buffer: 100 mM KCl, 1 mM MgCl2; PreQ1 0X-10X; dose-dependent inhibition of CNV crosslinking
[10] = tested on: Ssa-PreQ1 RNA (RNA, riboswitch) AGAGGUUCCUAGCUGAUACCCUCUAUAAAAAACUA; experiment: competition with bio-CNV photocrosslinking, pull-down, RNAseq; conditions: PreQ1 folding buffer: 100 mM KCl, 1 mM MgCl2; 1 µM aptamer in MCF7 total RNA, 250 µM bio-CNV, 500 µM PreQ1; enrichment abolished

N#C/C=C/c1ccc2[nH]c3ccccc3c2c1
KD [1]: 400 ± 200 nM | binding ([2]; reversed at 302 nm): yes | binding [3]: yes | binding [4]: yes | binding [5]: yes | binding [6]: yes | binding [7]: yes

N#C/C=C/c1ccc2[nH]c3ccc(CCCOC(=O)CCCc4cn(CCOCCOCCOCCNC(=O)CCCC[C@@H]5SC[C@@H]6NC(=O)N[C@@H]65)nn4)cc3c2c1
binding [8]: yes

N#C/C=C/c1ccc2[nH]c3ccncc3c2c1
binding ([2]; minimal uncaging at 302 nm): yes

NCc1c[nH]c2nc(N)[nH]c(=O)c12
binding [9]: yes | binding [10]: yes

N#C/C=C/c1ccc2[nH]c3cccnc3c2c1
binding ([2]; minimal uncaging at 302 nm): yes
